This data set in a line: Triterpenoid levels in mouse brain after feeding in diet (LC/MS). The class given is in vivo. Conditions: CD-1 mice, 200 or 400 mg/kg diet for 3.5 days. On the procedure: CD-1 mice were fed either 200 or 400 mg/kg diet of either TP-319 or TP-500 for 3.5 days, and TP levels in the brains of the mice were analyzed by LC/MS. The structures of TP-319 and TP-500 are shown below.

Molecules are shown by their SMILES.

`CC1(C)CC[C@]2(C(=O)NCC(F)(F)F)CC[C@]3(C)[C@H](C(=O)C=C4[C@@]5(C)C=C(C#N)C(=O)C(C)(C)[C@@H]5CC[C@]43C)[C@@H]2C1` [TP-500]: the “level detected in mouse brain compared with CDDO-EA (TP-319)” value is given as “Higher Levels”.

The values are drawn from patent US7915402B2, “Antioxidant inflammation modulators: oleanolic acid derivatives with saturation in the C-ring” (Reata Pharmaceuticals, Inc., priority 2008, dated 2011).
